Test results reported in patent US8247211B2, “Glycopeptide antibiotics” (American Cyanamid Company, priority 2001, dated 2012).
≈ marks a conversion by molar mass, not a printed value.

Tests used:
Experiment in all cases: In vitro antibacterial evaluation: minimum inhibitory concentration (MIC), broth dilution method
Type in all cases: cell-based
[1] = test system: Staphylococcus sp.; details: for MIC Staphylococcus aureus (ATCC 29213): strain ATCC 29213; for MIC Staphylococcus aureus (GC 1131): strain GC 1131; for MIC Staphylococcus aureus (GC 4541): strain GC 4541; for MIC Staphylococcus aureus-SMITH (GC 4543): strain GC 4543; for MIC Coagulase Negative Staphylococcus (GC 4547): strain GC 4547; for MIC Coagulase Negative Staphylococcus (GC 4548): strain GC 4548; for MIC Coagulase Negative Staphylococcus (GC 4549): strain GC 4549; for MIC Coagulase Negative Staphylococcus (GC 6257): strain GC 6257
In short: (§1)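 Values are minimum inhibitory concentrations, meaning the smallest antibiotic concentration that stops growth of the organism. They come from broth dilution in Muller-Hinton II […] per NCCLS guidance (M7-A2), using 5×10^5 CFU/mL and concentrations from 64 to 0.06 μg/mL.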

[2] = test system: Enterococcus sp.; details: 18 hours at 35° C.
In short: as §1

[3] = test system: Streptococcus sp.; details: 18 hours at 35° C.
In short: as §1

[4] = test system: Escherichia coli; details: 18 hours at 35° C.
In short: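 NCCLS M7-A2 broth dilution; Muller-Hinton II […]; 5×10^5 CFU/mL; 64-0.06 μg/mL. MIC = lowest concentration with no growth.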

[5] = Enterococcus faecalis (ATCC 29212)
[6] = Enterococcus faecalis (GC 2242)
[7] = Enterococcus faecalis (GC 6189)
[8] = broth dilution, inoculum 5×10^5 CFU/mL
[9] = Streptococcus pneumoniae (ATCC 6301)
[10] = Streptococcus pneumoniae (GC 1894)

Compound: CC(c1ccccc1)C1NC(=O)CNC(=O)C(CO)NC(=O)C(C(O)C2CNC(=N)N2C2OC(CO)C(O)C(O)C2O)NC(=O)C(C(O)C2CNC(=N)N2)NC(=O)C(Cc2ccc(OC3OC(CO)C(OC4OC5COC6(CCCCCCCCCCC6)OC5C(O)C4O)C(O)C3O)cc2)NC1=O (stereo not drawn) [Example 209, Cyclo[glycyl-β-methylphenylalanyl-O-[4-O-(4,6-O-cyclododecylidenehexopyranosyl)-hexopyranosyl]tyrosyl-3-(2-iminoimidazolidin-4-yl)seryl-3-(3-hexopyranosyl-2-iminoimidazolidin-4-yl)serylseryl]]
- MIC Staphylococcus aureus (ATCC 29213) [1]: 4 µg/mL (≈ 2.74 µM)
- MIC Staphylococcus aureus (GC 1131) [1]: 2 µg/mL (≈ 1.37 µM)
- MIC Staphylococcus aureus (GC 4541) [1]: 2 µg/mL (≈ 1.37 µM)
- MIC Staphylococcus aureus-SMITH (GC 4543) [1]: 1 µg/mL (≈ 0.685 µM)
- MIC Coagulase Negative Staphylococcus (GC 4547) [1]: 4 µg/mL (≈ 2.74 µM)
- MIC Coagulase Negative Staphylococcus (GC 4548) [1]: 1 µg/mL (≈ 0.685 µM)
- MIC Coagulase Negative Staphylococcus (GC 4549) [1]: 1 µg/mL (≈ 0.685 µM)
- MIC Coagulase Negative Staphylococcus (GC 6257) [1]: 2 µg/mL (≈ 1.37 µM)
- MIC Enterococcus avium (GC 4558) ([2]; Enterococcus avium (GC 4558)): 4 µg/mL (≈ 2.74 µM)
- MIC Enterococcus faecalis (ATCC 29212) [2, 5]: 4 µg/mL (≈ 2.74 µM)
- MIC Enterococcus faecalis (GC 2242) [2, 6]: 4 µg/mL (≈ 2.74 µM)
- MIC Enterococcus faecalis (GC 6189) [2, 7]: 1 µg/mL (≈ 0.685 µM)
- MIC Enterococcus faecium (GC 2243) ([2]; Enterococcus faecium (GC 2243)): 1 µg/mL (≈ 0.685 µM)
- MIC Enterococcus faecium (GC 4556) ([2]; Enterococcus faecium (GC 4556)): 4 µg/mL (≈ 2.74 µM)
- MIC Enterococcus avium (GC 4558) [2, 8]: 4 µg/mL (≈ 2.74 µM)
- MIC Enterococcus faecalis (ATCC 29212) [2, 8]: 4 µg/mL (≈ 2.74 µM)
- MIC Enterococcus faecalis (GC 2242) [2, 8]: 4 µg/mL (≈ 2.74 µM)
- MIC Enterococcus faecalis (GC 6189) [2, 8]: 1 µg/mL (≈ 0.685 µM)
- MIC Enterococcus faecium (GC 2243) [2, 8]: 1 µg/mL (≈ 0.685 µM)
- MIC Enterococcus faecium (GC 4556) [2, 8]: 4 µg/mL (≈ 2.74 µM)
- MIC Streptococcus pneumoniae (ATCC 6301) [3, 9]: <0.06 µg/mL
- MIC Streptococcus pneumoniae (GC 1894) [3, 10]: <0.06 µg/mL
- MIC Streptococcus pneumoniae (ATCC 6301) [3, 8]: <0.06 µg/mL
- MIC Streptococcus pneumoniae (GC 1894) [3, 8]: <0.06 µg/mL
- MIC Escherichia coli (ATCC 25922) [4]: 64 µg/mL (≈ 43.8 µM)
- MIC Escherichia coli (GC 4559) [4]: >64 µg/mL
- MIC Escherichia coli (GC 4560) [4]: 4 µg/mL (≈ 2.74 µM)

Compound: CC(c1ccccc1)C1NC(=O)CNC(=O)C(CO)NC(=O)C(C(O)C2CNC(=N)N2C2OC(CO)C(O)C(O)C2O)NC(=O)C(C(O)C2CNC(=N)N2)NC(=O)C(Cc2ccc(OC3OC(CO)C(OC4OC5COC6(CCCCCCCCCCCC6)OC5C(O)C4O)C(O)C3O)cc2)NC1=O (stereo not shown) [Example 210]
- MIC Staphylococcus aureus (ATCC 29213) [1]: 32 µg/mL (≈ 21.7 µM)
- MIC Staphylococcus aureus (GC 1131) [1]: 32 µg/mL (≈ 21.7 µM)
- MIC Staphylococcus aureus (GC 3051) ([1]; strain GC 3051): 32 µg/mL (≈ 21.7 µM)
- MIC Staphylococcus aureus (GC 3053) ([1]; strain GC 3053): 32 µg/mL (≈ 21.7 µM)
- MIC Staphylococcus aureus (GC 4541) [1]: 32 µg/mL (≈ 21.7 µM)
- MIC Staphylococcus aureus (GC 4542) ([1]; strain GC 4542): 32 µg/mL (≈ 21.7 µM)
- MIC Staphylococcus aureus-SMITH (GC 4543) [1]: 32 µg/mL (≈ 21.7 µM)
- MIC Staphylococcus aureus (GC 4544) ([1]; strain GC 4544): 32 µg/mL (≈ 21.7 µM)
- MIC Staphylococcus aureus (GC 4545) ([1]; strain GC 4545): 32 µg/mL (≈ 21.7 µM)
- MIC Staphylococcus haemolyticus (GC 4546) ([1]; strain GC 4546): 32 µg/mL (≈ 21.7 µM)
- MIC Coagulase Negative Staphylococcus (GC 4547) [1]: 32 µg/mL (≈ 21.7 µM)
- MIC Coagulase Negative Staphylococcus (GC 4548) [1]: 32 µg/mL (≈ 21.7 µM)
- MIC Coagulase Negative Staphylococcus (GC 4549) [1]: 8 µg/mL (≈ 5.43 µM)
- MIC Coagulase Negative Staphylococcus (GC 4551) ([1]; strain GC 4551): 32 µg/mL (≈ 21.7 µM)
- MIC Coagulase Negative Staphylococcus (GC 6257) [1]: 32 µg/mL (≈ 21.7 µM)
- MIC Enterococcus avium (GC 4558) ([2]; Enterococcus avium (GC 4558)): 16 µg/mL (≈ 10.9 µM)
- MIC Enterococcus faecalis (ATCC 29212) [2, 5]: 32 µg/mL (≈ 21.7 µM)
- MIC Enterococcus faecalis (GC 2242) [2, 6]: 16 µg/mL (≈ 10.9 µM)
- MIC Enterococcus faecalis (GC 2691) ([2]; Enterococcus faecalis (GC 2691)): 8 µg/mL (≈ 5.43 µM)
- MIC Enterococcus faecalis (GC 3059) ([2]; Enterococcus faecalis (GC 3059)): 32 µg/mL (≈ 21.7 µM)
- MIC Enterococcus faecalis (GC 4552) ([2]; Enterococcus faecalis (GC 4552)): 32 µg/mL (≈ 21.7 µM)
- MIC Enterococcus faecalis (GC 4553) ([2]; Enterococcus faecalis (GC 4553)): 16 µg/mL (≈ 10.9 µM)
- MIC Enterococcus faecalis (GC 4554) ([2]; Enterococcus faecalis (GC 4554)): 32 µg/mL (≈ 21.7 µM)
- MIC Enterococcus faecalis (GC 6189) [2, 7]: 16 µg/mL (≈ 10.9 µM)
- MIC Enterococcus faecium (GC 2243) ([2]; Enterococcus faecium (GC 2243)): 32 µg/mL (≈ 21.7 µM)
- MIC Enterococcus faecium (GC 4556) ([2]; Enterococcus faecium (GC 4556)): 32 µg/mL (≈ 21.7 µM)
- MIC Enterococcus faecium (GC 4557) ([2]; Enterococcus faecium (GC 4557)): 32 µg/mL (≈ 21.7 µM)
- MIC Enterococcus avium (GC 4558) [2, 8]: 16 µg/mL (≈ 10.9 µM)
- MIC Enterococcus faecalis (ATCC 29212) [2, 8]: 32 µg/mL (≈ 21.7 µM)
- MIC Enterococcus faecalis (GC 2242) [2, 8]: 16 µg/mL (≈ 10.9 µM)
- MIC Enterococcus faecalis (GC 2691) [2, 8]: 8 µg/mL (≈ 5.43 µM)
- MIC Enterococcus faecalis (GC 3059) [2, 8]: 32 µg/mL (≈ 21.7 µM)
- MIC Enterococcus faecalis (GC 4552) [2, 8]: 32 µg/mL (≈ 21.7 µM)
- MIC Enterococcus faecalis (GC 4553) [2, 8]: 16 µg/mL (≈ 10.9 µM)
- MIC Enterococcus faecalis (GC 4554) [2, 8]: 32 µg/mL (≈ 21.7 µM)
- MIC Enterococcus faecalis (GC 6189) [2, 8]: 16 µg/mL (≈ 10.9 µM)
- MIC Enterococcus faecium (GC 2243) [2, 8]: 32 µg/mL (≈ 21.7 µM)
- MIC Enterococcus faecium (GC 4556) [2, 8]: 32 µg/mL (≈ 21.7 µM)
- MIC Enterococcus faecium (GC 4557) [2, 8]: 32 µg/mL (≈ 21.7 µM)
- MIC Streptococcus agalactiae (GC 4564) ([3]; Streptococcus agalactiae (GC 4564)): 0.25 µg/mL (≈ 0.17 µM)
- MIC Streptococcus pneumoniae (ATCC 6301) [3, 9]: 0.25 µg/mL (≈ 0.17 µM)
- MIC Streptococcus pneumoniae (GC 1894) [3, 10]: <0.06 µg/mL
- MIC Streptococcus pneumoniae (GC 4565) ([3]; Streptococcus pneumoniae (GC 4565)): <0.06 µg/mL
- MIC Streptococcus pyogenes (GC 4563) ([3]; Streptococcus pyogenes (GC 4563)): 2 µg/mL (≈ 1.36 µM)
- MIC Streptococcus agalactiae (GC 4564) [3, 8]: 0.25 µg/mL (≈ 0.17 µM)
- MIC Streptococcus pneumoniae (ATCC 6301) [3, 8]: 0.25 µg/mL (≈ 0.17 µM)
- MIC Streptococcus pneumoniae (GC 1894) [3, 8]: <0.06 µg/mL
- MIC Streptococcus pneumoniae (GC 4565) [3, 8]: <0.06 µg/mL
- MIC Streptococcus pyogenes (GC 4563) [3, 8]: 2 µg/mL (≈ 1.36 µM)
- MIC Escherichia coli (ATCC 25922) [4]: >64 µg/mL
- MIC Escherichia coli (GC 4559) [4]: >64 µg/mL
- MIC Escherichia coli (GC 4560) [4]: 64 µg/mL (≈ 43.4 µM)
